Consider one compound from ChEMBL document CHEMBL5678818, “Discovery of potent SOS1 inhibitors that block RAS activation via disruption of the RAS-SOS1 interaction” (Proc Natl Acad Sci U S A, 2019).

For assay [1], the target named is T1, Mitogen-activated protein kinase kinase kinase 6 (Homo sapiens) (UniProt O95382).
T1 sequence (whole entry): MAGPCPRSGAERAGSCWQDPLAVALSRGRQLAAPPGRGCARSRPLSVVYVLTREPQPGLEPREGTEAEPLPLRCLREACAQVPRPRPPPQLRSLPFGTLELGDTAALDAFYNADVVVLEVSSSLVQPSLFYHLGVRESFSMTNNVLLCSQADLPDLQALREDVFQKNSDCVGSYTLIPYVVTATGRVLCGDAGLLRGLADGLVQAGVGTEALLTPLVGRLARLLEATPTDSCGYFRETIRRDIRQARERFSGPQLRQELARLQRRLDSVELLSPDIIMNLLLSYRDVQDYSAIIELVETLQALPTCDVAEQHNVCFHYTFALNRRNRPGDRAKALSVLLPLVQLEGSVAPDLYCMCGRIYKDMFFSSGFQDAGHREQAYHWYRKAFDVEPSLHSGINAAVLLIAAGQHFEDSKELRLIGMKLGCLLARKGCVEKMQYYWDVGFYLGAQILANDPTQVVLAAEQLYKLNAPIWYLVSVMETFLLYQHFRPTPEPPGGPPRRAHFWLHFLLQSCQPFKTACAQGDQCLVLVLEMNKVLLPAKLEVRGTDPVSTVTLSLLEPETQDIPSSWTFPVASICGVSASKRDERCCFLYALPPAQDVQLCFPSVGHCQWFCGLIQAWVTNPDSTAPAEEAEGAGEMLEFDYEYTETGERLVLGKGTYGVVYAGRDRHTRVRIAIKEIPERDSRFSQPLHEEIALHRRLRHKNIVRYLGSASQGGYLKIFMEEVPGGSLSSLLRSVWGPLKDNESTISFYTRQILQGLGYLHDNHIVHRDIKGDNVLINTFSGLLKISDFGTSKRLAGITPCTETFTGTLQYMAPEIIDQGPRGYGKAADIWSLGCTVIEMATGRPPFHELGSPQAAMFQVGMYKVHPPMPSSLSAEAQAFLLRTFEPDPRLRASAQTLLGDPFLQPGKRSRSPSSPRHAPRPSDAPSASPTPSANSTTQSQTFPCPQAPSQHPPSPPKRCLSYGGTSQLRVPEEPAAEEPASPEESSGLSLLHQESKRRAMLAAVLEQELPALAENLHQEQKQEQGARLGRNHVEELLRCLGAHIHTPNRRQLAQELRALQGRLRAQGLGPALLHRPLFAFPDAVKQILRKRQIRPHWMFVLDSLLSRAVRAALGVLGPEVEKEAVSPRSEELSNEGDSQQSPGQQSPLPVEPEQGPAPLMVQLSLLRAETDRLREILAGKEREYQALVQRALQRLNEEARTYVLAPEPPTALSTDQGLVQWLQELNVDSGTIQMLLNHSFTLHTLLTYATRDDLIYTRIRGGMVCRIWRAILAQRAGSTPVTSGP
The assay can be described thus: Inhibition of ASK2 (unknown origin) assessed as residual activity at 100 nM by KINOMEscan analysis relative to control.

Assay [2] concerns the target Calcium/calmodulin-dependent protein kinase type II subunit beta (Homo sapiens) (UniProt Q13554). Put plainly: Inhibition of CAMK2B (unknown origin) assessed as residual activity at 100 nM by KINOMEscan analysis relative to control.
The species entered for another assay is Homo sapiens. The assay can be described thus: Inhibition of JNK2 (unknown origin) assessed as residual activity at 100 nM by KINOMEscan analysis relative to control.
In assay [3] the target is Serine/threonine-protein kinase 33 (Homo sapiens) (UniProt Q9BYT3). The assay can be described thus: Inhibition of STK33 (unknown origin) assessed as residual activity at 100 nM by KINOMEscan analysis relative to control.
Serine/threonine-protein kinase 33 (Homo sapiens), sequence (Q9BYT3 whole entry, looked up): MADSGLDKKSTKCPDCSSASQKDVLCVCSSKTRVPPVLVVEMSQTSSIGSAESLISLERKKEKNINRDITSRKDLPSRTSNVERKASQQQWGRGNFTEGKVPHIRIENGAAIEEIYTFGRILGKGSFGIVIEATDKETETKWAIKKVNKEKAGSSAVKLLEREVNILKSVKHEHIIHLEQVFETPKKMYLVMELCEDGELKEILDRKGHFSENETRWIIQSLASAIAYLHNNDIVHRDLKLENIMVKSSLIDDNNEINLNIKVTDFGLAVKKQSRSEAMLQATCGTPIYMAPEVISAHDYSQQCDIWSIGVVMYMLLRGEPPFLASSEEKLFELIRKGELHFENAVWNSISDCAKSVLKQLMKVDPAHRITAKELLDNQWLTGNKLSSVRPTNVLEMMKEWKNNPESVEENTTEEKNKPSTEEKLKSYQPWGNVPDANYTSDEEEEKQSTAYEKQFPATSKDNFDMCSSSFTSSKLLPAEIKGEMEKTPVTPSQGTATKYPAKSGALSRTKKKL
Assay [4] has as its target Cyclin-dependent kinase 11B (Homo sapiens) (UniProt P21127). Put plainly: Inhibition of CDC2L1 (unknown origin) assessed as residual activity at 100 nM by KINOMEscan analysis relative to control.
For assay [5], the target named is T2, Serine/threonine-protein kinase TBK1 (Homo sapiens) (UniProt Q9UHD2).
T2 sequence (whole entry): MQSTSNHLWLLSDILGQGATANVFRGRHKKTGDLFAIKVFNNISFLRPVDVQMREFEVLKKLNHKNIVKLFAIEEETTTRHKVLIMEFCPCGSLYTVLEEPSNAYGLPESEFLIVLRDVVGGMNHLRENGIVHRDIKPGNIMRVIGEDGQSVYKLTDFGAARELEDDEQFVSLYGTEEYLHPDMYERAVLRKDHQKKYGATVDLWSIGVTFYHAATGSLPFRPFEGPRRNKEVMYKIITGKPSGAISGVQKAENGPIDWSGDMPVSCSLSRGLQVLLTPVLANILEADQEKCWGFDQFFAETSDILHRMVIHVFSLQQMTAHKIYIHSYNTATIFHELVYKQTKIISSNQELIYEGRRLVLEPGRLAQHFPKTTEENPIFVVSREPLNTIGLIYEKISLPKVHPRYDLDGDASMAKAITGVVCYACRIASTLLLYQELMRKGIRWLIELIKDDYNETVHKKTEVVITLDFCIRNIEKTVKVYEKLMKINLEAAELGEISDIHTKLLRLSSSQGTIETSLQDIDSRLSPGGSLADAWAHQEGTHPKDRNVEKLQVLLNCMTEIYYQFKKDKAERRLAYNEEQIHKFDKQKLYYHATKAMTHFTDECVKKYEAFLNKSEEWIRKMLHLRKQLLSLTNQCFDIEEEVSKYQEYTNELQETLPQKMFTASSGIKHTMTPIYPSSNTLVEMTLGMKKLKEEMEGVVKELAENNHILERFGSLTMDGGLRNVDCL
The assay can be described thus: Inhibition of TBK1 (unknown origin) assessed as residual activity at 100 nM by KINOMEscan analysis relative to control.

Cyclin-dependent kinase 11B (Homo sapiens), sequence (P21127 whole entry): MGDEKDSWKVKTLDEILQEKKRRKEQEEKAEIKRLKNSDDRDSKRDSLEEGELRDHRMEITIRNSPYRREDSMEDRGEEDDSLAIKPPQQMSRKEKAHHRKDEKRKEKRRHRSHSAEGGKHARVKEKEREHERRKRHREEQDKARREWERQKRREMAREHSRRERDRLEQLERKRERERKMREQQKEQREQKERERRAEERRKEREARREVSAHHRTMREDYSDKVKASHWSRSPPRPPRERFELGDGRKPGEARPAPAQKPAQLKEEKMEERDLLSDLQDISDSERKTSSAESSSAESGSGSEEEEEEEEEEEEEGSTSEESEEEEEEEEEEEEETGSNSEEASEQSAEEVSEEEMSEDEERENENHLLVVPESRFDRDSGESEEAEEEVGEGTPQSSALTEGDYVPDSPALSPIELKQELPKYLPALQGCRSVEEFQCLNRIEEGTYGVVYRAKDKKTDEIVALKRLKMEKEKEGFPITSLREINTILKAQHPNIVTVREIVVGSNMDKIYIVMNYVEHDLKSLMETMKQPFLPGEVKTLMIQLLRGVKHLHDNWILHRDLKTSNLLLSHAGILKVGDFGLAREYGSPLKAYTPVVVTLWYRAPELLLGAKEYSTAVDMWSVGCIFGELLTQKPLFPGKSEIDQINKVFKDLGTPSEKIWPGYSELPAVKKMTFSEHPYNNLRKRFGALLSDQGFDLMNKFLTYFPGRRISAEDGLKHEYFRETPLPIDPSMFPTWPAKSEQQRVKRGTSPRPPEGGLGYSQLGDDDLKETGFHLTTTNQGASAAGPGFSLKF
Calcium/calmodulin-dependent protein kinase type II subunit beta (Homo sapiens), sequence (Q13554 whole entry): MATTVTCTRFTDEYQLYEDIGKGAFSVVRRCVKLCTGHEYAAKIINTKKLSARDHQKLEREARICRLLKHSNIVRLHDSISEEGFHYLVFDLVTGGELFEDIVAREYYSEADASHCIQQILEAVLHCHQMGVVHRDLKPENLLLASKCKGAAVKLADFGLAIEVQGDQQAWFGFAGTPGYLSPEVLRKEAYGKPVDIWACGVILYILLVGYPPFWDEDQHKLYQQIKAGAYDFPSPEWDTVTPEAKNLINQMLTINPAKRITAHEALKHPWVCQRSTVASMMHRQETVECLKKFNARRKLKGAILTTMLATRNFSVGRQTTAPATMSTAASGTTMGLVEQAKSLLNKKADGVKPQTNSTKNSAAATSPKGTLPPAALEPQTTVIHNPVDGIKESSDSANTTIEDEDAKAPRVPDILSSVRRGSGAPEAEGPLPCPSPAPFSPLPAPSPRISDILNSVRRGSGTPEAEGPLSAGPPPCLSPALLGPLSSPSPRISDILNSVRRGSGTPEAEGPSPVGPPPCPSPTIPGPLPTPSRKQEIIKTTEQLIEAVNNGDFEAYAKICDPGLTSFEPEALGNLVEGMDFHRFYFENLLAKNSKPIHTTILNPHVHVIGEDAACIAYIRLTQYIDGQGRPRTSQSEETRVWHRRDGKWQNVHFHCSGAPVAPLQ

For `COc1cc2ncnc(N[C@H](C)c3cccc4ccccc34)c2cc1OC`, the Activity in assay [1] amounted to 71%; in assay [2], 100%; in the assay filed under Homo sapiens, 68%; in assay [3] it was 70%; in assay [4] it was 82%; in assay [5], 96%.
